Where a name gives a salt, the structure may show the parent alone.
Experiment: Comparison of physical properties: solubility in esters, ketones, ethers
Assay type: physicochemical
Settings: organic solvents: esters
Procedure: The following is a comparative example, comparing substantially pure lercanidipine free base prepared as described in example 1 (a to d) with crude free base prepared by the method of U.S. Pat. No. 4,705,797 and lercanidipine hydrochloride. Crude free base was prepared as described below. Lercanidipine hydrochloride was obtained from Recordati S.p.A., Milan, Italy.

Solubility in esters, ketones, ethers | Solubility in esters, ketones, ethers (hydrochloride) | SMILES
Very soluble |  | COC(=O)C1=C(C)NC(C)=C(C(=O)OC(C)(C)CN(C)CCC(c2ccccc2)c2ccccc2)C1c1cccc([N+](=O)[O-])c1 (centres unmarked) [Crude Free Base, methyl 1,1,N-trimethyl-N-(3,3-diphenylpropyl)-2-aminoethyl 1,4-dihydro-2,6-dimethyl-4-(3-nitrophenyl)pyridine-3,5-dicarboxylate]
 | insoluble | COC(=O)C1=C(C)NC(C)=C(C(=O)OC(C)(C)CN(C)CCC(c2ccccc2)c2ccccc2)C1c1cccc([N+](=O)[O-])c1 (centres unmarked) [Lercanidipine Hydrochloride, lercanidipine hydrochloride]

Reference: patent US20060199849A1, “Solid lercanidipine free base” (Recordati Ireland Limited, priority 2005, published 2006)
